Here are results for seven compounds from PMC12561670, “Isolation of Dual-Active Drugs with Anticancer and Antibacterial Activities That Target Both Tubulin and FtsZ” (Antibiotics, 2025).

One data set has as its system S. aureus BNCC336423. Put plainly: Time–killing curve. As to conditions: S. aureus BNCC336423, concentrations of 4× the MIC or greater. The class given is cell-based. Here is the method: S. aureus BNCC336423 was employed for the time–killing curve study. […] Meanwhile, DMSO with an equivalent volume was added to the vehicle control tube. The cultures were then subjected to shaking incubation at 37 °C. Subsequently, cultures were taken out at predetermined time intervals (0, 1, 2, 4, 6, 8, and 24 h), centrifuged at 16,000×g for 3 min, and diluted to an appropriate multiple. These diluted samples were then plated onto Tryptic Soy Agar (TSA) plates for enumeration. Following a 24 h incubation period at 37 °C, colonies on the TSA plates were counted for the CFU/mL, thereby providing insights into the time-dependent bactericidal activity of the tested compounds.

The next data set relates to bovine brain tubulin. Kind of data set: Inhibition of tubulin polymerization. In kind it is biochemical. As to conditions: 10 μM bovine brain tubulin, 20 min; read-out: IC50 ± SD Tubulin (inhibition of tubulin polymerization). Here is the method:
Compounds with a certain concentration were pre-incubated with 10 μM bovine brain tubulin in glutamate buffer at 30 °C, and then cooled to 0 °C. The absorbance of 350 nm was immediately measured at 30 °C, as soon as the addition of 0.4 mM GTP. The absorbance would be detected continuously for 20 min. The IC50 was defined as the compound concentration that inhibited tubulin polymerization by 50% during 20 min.

For the next data set, the system named is E. coli (ATCC 8739). Put plainly: MIC, broth microdilution. In kind it is cell-based. As to conditions: Escherichia coli, read-out: MIC E. coli (ATCC 8739). For orientation: Dilution methods test growth across graded concentrations, often in twofold steps.
The next data set has as its system S. aureus (ATCC 6538). Kind of data set: MIC, broth microdilution. In kind it is cell-based. As to conditions: Staphylococcus aureus, read-out: MIC S. aureus (ATCC 6538).
Another data set concerns the target T1, FtsZ (Staphylococcus aureus, UniProt P0A031).
T1 construct: His tag; made in house; host or cells: E. coli BL21(DE3)
T1 sequence (P0A031 1-390): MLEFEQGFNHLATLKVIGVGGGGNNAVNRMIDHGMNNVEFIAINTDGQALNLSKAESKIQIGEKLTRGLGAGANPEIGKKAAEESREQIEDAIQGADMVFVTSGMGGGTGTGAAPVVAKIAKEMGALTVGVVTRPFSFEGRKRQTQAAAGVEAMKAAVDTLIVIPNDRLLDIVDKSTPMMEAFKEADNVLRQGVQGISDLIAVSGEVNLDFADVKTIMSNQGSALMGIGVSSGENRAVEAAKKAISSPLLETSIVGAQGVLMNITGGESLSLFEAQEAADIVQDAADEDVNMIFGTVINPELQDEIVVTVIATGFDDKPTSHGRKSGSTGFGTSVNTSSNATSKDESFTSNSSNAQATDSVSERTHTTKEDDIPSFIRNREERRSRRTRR
Put plainly: Sedimentation assay of FtsZ polymerization. In kind it is biochemical. As to conditions: 50 μM compound, 5 μM FtsZ, 37 °C 30 min. As to the method: Sedimentation assay was also conducted for the influence of compounds on FtsZ polymerization. FtsZ (5 μM) was polymerized in a buffer containing 25 mM Pipes buffer (pH 6.8) and 3 mM MgSO4 in the […] of DMSO or compounds (50 μM). After the addition of 4 mM GTP, the sample was instantly placed at 37 °C for 30 min. Then, the polymers were collected by centrifuging for 30 min at 25 °C. The protein concentration in the supernatant was determined using the Bradford quantification method, with bovine serum albumin (BSA) as the standard. The experiment was performed in triplicate, and the average absorbance is shown.

Another data set addresses T2, S. aureus FtsZ (Staphylococcus aureus, UniProt P0A031).
T2 construct: His tag; made in house; host or cells: E. coli BL21(DE3)
T2 sequence (P0A031 1-390): T1 sequence (P0A031 1-390)
Put plainly: FtsZ polymerization assay (A340). As to conditions: 50 μM compound, 5 µM FtsZ, 4 mM GTP, vs DMSO. The class given is biochemical. Here is the method:
The effect of compounds on S. aureus FtsZ polymerization was monitored by employing a microtiter plate-based spectrophotometric assay method, and the reactions were conducted in flat-bottomed 96-well microtiter plates. The degree of FtsZ polymerization was reflected by the corresponding changes in absorbance at 340 nm (A340). […] The polymerization reaction began immediately once 4 mM GTP was added, and then the polymerization was continuously monitored at 25 °C for 60 min by measuring A340 in BioTek-Synergy4 multifunctional enzyme-linked immunosorbent assay (ELISA) reader.

The test system of a further data set is B. subtilis (CICC 21164). Put plainly: MIC, broth microdilution. The class given is cell-based. As to conditions: Bacillus subtilis, 18 h, read-out: MIC B. subtilis (CICC 21164). Here is the method: MIC assays were carried out by employing the broth microdilution method in accordance with Clinical and Laboratory Standards Institute (CLSI) guidelines. E. coli BNCC337004, S. aureus BNCC336423, P. aeruginosa BNCC337099, and B. subtilis CICC 21164 were applied for the MIC detection. Mueller–Hinton broth (MHB) was used in bacterial culture, and log-phase bacteria were diluted into a 0.5 McFarland Standard suspension, which was then diluted 1000 times again. Subsequently, 100 μL of the obtained bacterial suspension was placed into each well of 96-well microtiter plates, along with 2-fold serial dilutions of compounds (512, 256, 128, 64, 32, 16, 8, 4, 2, 1, 0.5, 0 μM). The microtiter plates were incubated aerobically for 18 h at 37 °C. The MIC was defined as the lowest drug concentration at which no visible turbidity was observed. All experiments are conducted in three parallel.

In a further data set the test system is P. aeruginosa (DSM 939). Kind of data set: MIC, broth microdilution. The class given is cell-based. As to conditions: Pseudomonas aeruginosa, read-out: MIC P. aeruginosa (DSM 939).
The next data set is described as follows: Cytotoxicity, CCK8. The class given is cell-based. As to conditions: human. As to the method:
The absorbance of 450 nm was measured in an ELISA reader (BioTek-Synergy 4, USA). Then, cell viability was calculated, and the corresponding images were drawn with GraphPad Prism 9.

A further data set relates to E. coli. Put plainly: In vivo antibacterial activity, mouse peritoneal infection. Also on record: species or system CD-1 male mice. From the text:
SPF grade CD-1 male mice weighing 30 ± 3 g were purchased from Shanghai Slake Experimental Animal Co., Ltd. (Shanghai, China). […] Immediately following this, the mice were intraperitoneally injected with the test compounds. Each experimental group consisted of five mice, with each compound being tested at two distinct concentration gradients (determined based on the minimum inhibitory concentration, MIC). A separate group received physiological saline as a negative control. The subsequent assessment focused on evaluating the therapeutic potential of these drugs against bacterial infections. On the first and third days post-administration, 2 mL of sterile physiological saline was injected into the peritoneal cavity of each mouse. After a gentle two-minute dilution under sterile conditions, the abdominal fluid was extracted for bacterial enumeration using the plate counting method. Furthermore, the clinical manifestations of each mouse group, encompassing mental status, appetite, and other relevant parameters, were meticulously observed over a seven-day period. On the seventh day, the mice were euthanized, and a thorough macroscopic examination was conducted to assess the pathological changes in various vital organs.

The subject of another data set is B. subtilis. Put plainly: Phase-contrast microscopy, cell division inhibition. In kind it is cell-based. As to conditions: 64 μM, 4 h. Here is the method: Cell Division Inhibitory Screening Assay Cell division inhibitory activity of compounds was conducted as below. […] Afterwards, 1 mL of the sample was centrifuged at 15,000× g for 3 min at room temperature, and the bacterial pellets were washed with 1 mL of PBS before re-centrifugation. The final bacterial pellets obtained were resuspended in 5 mL PBS. 20 μL of bacterial suspension was transferred to slides for microscopy. Cell morphology was estimated by using the phase-contrast method of Olympus IX71 microscopy (Olympus Corporation, Tokyo, Japan) with 400× magnification.

Where [1] appears, read: ATCC8739, broth microdilution, 18 h, 37 °C.
The mark [2] stands for this setting: ATCC6538, broth microdilution, 18 h, 37 °C.
[3] abbreviates: DSM939, broth microdilution, 18 h, 37 °C.
Setting [4] is: 293T cells (renal epithelial cells), read-out: cell viability HT293 (293T).
The mark [5] stands for this setting: LO2 cells (normal hepatic cells), read-out: cell viability LO2.

≈ marks a conversion by molar mass, not a printed value. Counter-ions that a name gives are not always drawn. Like-named read-outs stand apart in the source and are kept apart here.

What is called IC50 is the point on the concentration scale where inhibition reaches its midpoint. Usually MIC stands for the lowest concentration found to suppress growth. The viability is a per cent measure of how many cells are alive, often set against a control. For `CN(C)c1ccc2c(c1)Sc1cc(N(C)C)ccc1N2` [Compound 33, Leucomethylene blue mesylate], the “logs of kill in time–kill” value in the data set on S. aureus BNCC336423 is listed as 3 logs. For the same compound, the IC50 in the data set on bovine brain tubulin was 74.46 ± 0.25 µM. The MIC in the data set on E. coli (ATCC 8739) (setting [1]) was determined as 32 µM; in the data set on S. aureus (ATCC 6538) (setting [2]), 4 µM; in the data set on B. subtilis (CICC 21164) (broth microdilution, 37 °C) it was 64 µM; in the data set with P. aeruginosa (DSM 939) (setting [3]), 2 µM. Besides, at FtsZ, the “effect on FtsZ sedimentation (polymerization amount)” value (shortened to “effect on FtsZ sedimentation”) is “varying degrees of inhibition on FtsZ polymerization”. Further, the “effect on FtsZ polymerization (A340)” value on S. aureus FtsZ is on record as “minimal impact on the dynamics of FtsZ polymerization”. Besides, the viability at 12 h, 100 µM in “Cytotoxicity, CCK8” (setting [4]) is 80%; in the data set “Cytotoxicity, CCK8” (setting [5]), 65%.

With `C[C@]12CC[C@@H]3c4ccc(OC(=O)N(CCCl)CCCl)cc4CC[C@H]3[C@@H]1CC[C@@H]2O` [Compound 56, Estramustine], in the data set with bovine brain tubulin, the IC50 stood at 38.66 ± 0.28 µM. Besides, the MIC in the data set on E. coli (ATCC 8739) (ATCC8739, 18 h) worked out at 128 µM (≈ 56.4 µg/mL); with S. aureus (ATCC 6538) (ATCC6538, 18 h) it was 128 µM (≈ 56.4 µg/mL); in the data set on B. subtilis (CICC 21164), 64 µM (≈ 28.2 µg/mL); in the data set on P. aeruginosa (DSM 939) (DSM939, 18 h), 32 µM (≈ 14.1 µg/mL). Besides, the “effect on FtsZ sedimentation” value at FtsZ is “negligible effects”. The “effect on FtsZ polymerization (A340)” value on S. aureus FtsZ is on record as “minimal impact on the dynamics of FtsZ polymerization”. In addition, the viability at 12 h, 100 µM in “Cytotoxicity, CCK8” (read-out: cell viability HT293 (293T)) worked out at 98%; in “Cytotoxicity, CCK8” (read-out: cell viability LO2), 99%.

Regarding `CC[C@]1(O)C[C@H]2CN(CCc3c([nH]c4ccccc34)[C@@](C(=O)OC)(c3cc4c(cc3OC)N(C=O)[C@H]3[C@@](O)(C(=O)OC)[C@H](OC(C)=O)[C@]5(CC)C=CCN6CC[C@]43[C@@H]65)C2)C1` [Compound 6, Vincristine sulfate], the MIC is 64 µM in the data set on E. coli (ATCC 8739) (setting [1]); 8 µM with S. aureus (ATCC 6538) (setting [2]); 16 µM in the data set on B. subtilis (CICC 21164) (broth microdilution, 37 °C); 32 µM with P. aeruginosa (DSM 939) (setting [3]). Also, at FtsZ, the “effect on FtsZ sedimentation” value was “negligible effects”.

As to `CN(C)c1ccc2nc3ccc(=[N+](C)C)cc-3sc2c1` [Compound 71, Methylene Blue], in the data set on S. aureus BNCC336423, the “logs of kill in time–kill” value amounted to 3 logs. The MIC in the data set with E. coli (ATCC 8739) (setting [1]) was found to be 64 µM; in the data set on S. aureus (ATCC 6538) (setting [2]), 2 µM; in the data set with B. subtilis (CICC 21164) (broth microdilution, 37 °C), 32 µM; in the data set on P. aeruginosa (DSM 939) (setting [3]), 64 µM. Further, the “effect on FtsZ sedimentation” value on FtsZ is on record as “negligible effects”.

On to `COc1ccc2cc3[n+](cc2c1OC)CCc1cc2c(cc1-3)OCO2` [Compound 82, Berberine], for which the MIC in the data set on E. coli (ATCC 8739) (setting [1]) was determined as 64 µM; in the data set with S. aureus (ATCC 6538) (setting [2]), 4 µM; in the data set with B. subtilis (CICC 21164) (broth microdilution, 37 °C), 64 µM; in the data set with P. aeruginosa (DSM 939) (setting [3]), 8 µM. The “bacterial count of peritoneal fluid” value in the data set on E. coli (mice i.p. E. coli, i.p. compound, days 1 and 3) was “substantially mitigated”. The “clinical presentation of infected mice” value in the data set on E. coli (seven-day observation) is reported as “exhibited vitality, maintained a healthy appetite”. Further, the “effect on FtsZ sedimentation” value at FtsZ is given as “varying degrees of inhibition on FtsZ polymerization”. In addition, the “effect on FtsZ polymerization (A340)” value at S. aureus FtsZ is listed as “robust inhibitory activity against FtsZ polymerization”. Moreover, in the data set with B. subtilis, the “cell morphology of B. subtilis (elongation)” value is “varying degrees of elongation”.

Regarding `COc1ccc(/C=C\c2cc(OC)c(OC)c(OC)c2)cc1O` [CA-4, Combretastatin A4], the IC50 in the data set with bovine brain tubulin was determined as […].

In the case of `CC(C)CNc1ccnc(NCc2csc(-c3ccccc3)n2)n1` [Compound 60, KHS 101], the IC50 in the data set with bovine brain tubulin was found to be 5.62 ± 0.12 µM. For the same compound, the MIC with E. coli (ATCC 8739) (setting [1]) came out at 16 µM (≈ 5.43 µg/mL); in the data set on S. aureus (ATCC 6538) (setting [2]), 8 µM (≈ 2.72 µg/mL); in the data set on B. subtilis (CICC 21164) (broth microdilution, 37 °C) it was 64 µM (≈ 21.7 µg/mL); with P. aeruginosa (DSM 939) (setting [3]), 8 µM (≈ 2.72 µg/mL). Moreover, the “effect on FtsZ sedimentation” value on FtsZ is recorded as “varying degrees of inhibition on FtsZ polymerization”. The “effect on FtsZ polymerization (A340)” value at S. aureus FtsZ is reported as “apparent inhibitory tendencies towards FtsZ polymerization”. Besides, the viability at 12 h, 100 µM is 89% in “Cytotoxicity, CCK8” (setting [4]) and 90% in the data set “Cytotoxicity, CCK8” (setting [5]).
